Literature values, collected in patent publication US12576064B2, “Urolithin gummy (pectin) formulations” (Amazentis SA, priority 2023, dated 2026).

Test system: myotubes
Settings: in vitro

| Structure (SMILES) | mean diameter of myotubes |
| --- | --- |
| O=c1oc2cc(O)ccc2c2ccccc12 [Urolithin B] | increased |
| O=c1oc2cc(O)ccc2c2ccc(O)cc12 [Urolithin A] | not seen |
